# From patent publication US12435080B2, “sGC stimulators” (Tisento Therapeutics Inc., priority 2016, dated 2025)
# Molecular target: T1, sGC enzyme (Homo sapiens, UniProt Q02108+Q02153)
# T1 construct: incorporated into these cells detect cGMP formed by the compounds stimulating the sGC enzyme; host or cells: HEK293 cells stably expressing GloSensor 40F cGMP biosensor
# T1 sequence (Q02153 1-619): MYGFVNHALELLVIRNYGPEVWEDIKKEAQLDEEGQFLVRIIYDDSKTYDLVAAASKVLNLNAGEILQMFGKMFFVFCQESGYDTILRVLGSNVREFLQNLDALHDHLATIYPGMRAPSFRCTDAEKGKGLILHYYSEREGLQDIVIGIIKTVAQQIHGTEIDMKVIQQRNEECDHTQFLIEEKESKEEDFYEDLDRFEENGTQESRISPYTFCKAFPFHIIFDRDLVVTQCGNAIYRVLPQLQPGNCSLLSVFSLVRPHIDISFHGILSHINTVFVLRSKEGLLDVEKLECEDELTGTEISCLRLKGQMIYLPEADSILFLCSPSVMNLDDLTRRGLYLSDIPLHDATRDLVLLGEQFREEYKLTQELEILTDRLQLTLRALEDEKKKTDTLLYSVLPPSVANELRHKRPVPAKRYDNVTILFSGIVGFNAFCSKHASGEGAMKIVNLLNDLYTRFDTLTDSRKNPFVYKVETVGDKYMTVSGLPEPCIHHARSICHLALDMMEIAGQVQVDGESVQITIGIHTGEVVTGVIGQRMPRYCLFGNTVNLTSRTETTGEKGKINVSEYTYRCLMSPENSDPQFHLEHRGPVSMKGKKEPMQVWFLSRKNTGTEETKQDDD
# T1 sequence (Q02108 1-690): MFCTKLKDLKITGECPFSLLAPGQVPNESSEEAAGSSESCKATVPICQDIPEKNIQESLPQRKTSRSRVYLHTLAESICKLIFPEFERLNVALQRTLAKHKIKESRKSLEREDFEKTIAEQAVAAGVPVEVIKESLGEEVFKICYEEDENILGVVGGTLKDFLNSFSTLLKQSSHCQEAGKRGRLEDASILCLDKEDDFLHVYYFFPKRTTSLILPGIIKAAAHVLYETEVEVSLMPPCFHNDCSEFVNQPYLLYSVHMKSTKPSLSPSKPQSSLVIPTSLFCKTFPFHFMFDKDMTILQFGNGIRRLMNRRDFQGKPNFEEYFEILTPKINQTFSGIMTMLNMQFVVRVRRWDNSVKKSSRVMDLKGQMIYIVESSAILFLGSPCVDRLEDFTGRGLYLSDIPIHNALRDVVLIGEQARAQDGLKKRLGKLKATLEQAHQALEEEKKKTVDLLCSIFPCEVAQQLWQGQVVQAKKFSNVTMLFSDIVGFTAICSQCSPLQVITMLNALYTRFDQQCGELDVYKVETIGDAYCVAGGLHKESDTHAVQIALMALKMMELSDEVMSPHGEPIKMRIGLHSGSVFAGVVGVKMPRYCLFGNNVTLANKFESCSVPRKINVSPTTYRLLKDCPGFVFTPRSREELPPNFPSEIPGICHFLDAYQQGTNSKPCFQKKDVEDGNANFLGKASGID
# Test: cGMP GloSensor cell-based assay, 384-well format
# Conditions: HEK293 cells expressing GloSensor 40F cGMP; 10 μM DETA-NONOate; normalized to 30 μM Compound Y; compounds in Table IA; read-out: Glo-sensor AbsEC50
# From the text: Human embryonic kidney cells (HEK293) cells expressing GloSensor™ 40F cGMP (Part No: CS182801, Promega) were used to evaluate the activity of test compounds. The luminescent biosensors (engineered luciferase) that were incorporated into these cells detect cGMP formed by the compounds stimulating the sGC enzyme and emit luminescence.
# cGMP GloSensor cells were maintained in Dulbecco's Modification of Eagle's Medium (DMEM) supplemented with fetal bovine serum (FBS, 10% final) and hygromycine (200 ug/ml). […] Cells were incubated overnight at 37° C. in a humidified chamber with 5% CO2. The next day, medium was removed and cells were replaced with 40 ul/well of GloSensor™, 2 mM (Promega Cat No E1291). Cells were treated for 90 minutes at 25° C. to allow the substrate to equilibrate in the cells. […] For endpoint SAR screening, data were collected after 55 min incubation at room temperature.
# Data were fit using a 4-parameter fit (log(agonist) vs. response—variable slope) using GraphPad Prism Software v.5. n=2 for all compounds. […] Compounds failing to elicit a minimum response of 50% are reported as >30 μM or ND.
row,Structure (SMILES),EC50
1,"O=C1CCC(=O)N1Cc1n[nH]c(-c2nn(Cc3ccccc3F)c3ncccc23)n1 [Compound I-125, 1-((5-(1-(2-fluorobenzyl)-1H-pyrazolo[3,4-b]pyridin-3-yl)-1H-1,2,4-triazol-3-yl)methyl)pyrrolidine-2,5-dione]",100 to 1000 nM
2,Fc1ccccc1Cn1nc(-c2nc(C(F)(F)F)n[nH]2)c2ccncc21 [Compound I-32],100 to 1000 nM
3,"Fc1ccccc1Cn1nc(-c2nc(CC(F)(F)F)n[nH]2)c2cccnc21 [Compound I-26, 1-(2-Fluorobenzyl)-3-(3-(2,2,2-trifluoroethyl)-1H-1,2,4-triazol-5-yl)-1H-pyrazolo[3,4-b]pyridine]",< 100 nM
4,"Fc1ccccc1Cn1nc(-c2nc(Cn3ccnc3)n[nH]2)c2cccnc21 [Compound I-99, 3-(3-((1H-imidazol-1-yl)methyl)-1H-1,2,4-triazol-5-yl)-1-(2-fluorobenzyl)-1H-pyrazolo[3,4-b]pyridine]",100 to 1000 nM
5,"Fc1ccccc1Cn1nc(-c2nc(C(F)(F)Cl)n[nH]2)c2cccnc21 [Compound I-65, 3-(3-(Chlorodifluoromethyl)-1H-1,2,4-triazol-5-yl)-1-(2-fluorobenzyl)-1H-pyrazolo[3,4-b]pyridine]",< 100 nM
6,"Fc1ccccc1Cn1nc(-c2nc(C(F)(F)F)n[nH]2)c2ccnnc21 [Compound I-100, 1-(2-Fluorobenzyl)-3-(3-(trifluoromethyl)-1H-1,2,4-triazol-5-yl)-1H-pyrazolo[3,4-c]pyridazine]",100 to 1000 nM
7,Fc1ccccc1Cn1nc(-c2nc(-c3ccccc3)n[nH]2)c2cccnc21 [Compound I-39],> 1000 nM
8,"NC1(c2n[nH]c(-c3nn(Cc4ccccc4F)c4ncccc34)n2)COC1 [Compound I-79, 3-(5-(1-(2-fluorobenzyl)-1H-pyrazolo[3,4-b]pyridin-3-yl)-1H-1,2,4-triazol-3-yl)oxetan-3-amine]",> 1000 nM
9,"Fc1cccc(Cc2nn(-c3nc(C(F)F)n[nH]3)c3cccnc23)c1 [Compound I-122, 1-(3-(Difluoromethyl)-1H-1,2,4-triazol-5-yl)-3-(3-fluorobenzyl)-1H-pyrazolo[4,3-b]pyridine]",100 to 1000 nM
10,"COCc1n[nH]c(-c2nn(Cc3ccccc3F)c3ncccc23)n1 [Compound I-112, 1-(2-Fluorobenzyl)-3-(3-(methoxymethyl)-1H-1,2,4-triazol-5-yl)-1H-pyrazolo[3,4-b]pyridine]",100 to 1000 nM
11,"Fc1ccccc1Cn1nc(-c2nc(C3CC(F)(F)C3)n[nH]2)c2cccnc21 [Compound I-77, 3-(3-(3,3-Difluorocyclobutyl)-1H-1,2,4-triazol-5-yl)-1-(2-fluorobenzyl)-1H-pyrazolo[3,4-b]pyridine]",100 to 1000 nM
12,"Fc1n[nH]c(-c2nn(Cc3ccccc3F)c3ncccc23)n1 [Compound I-45, 3-(3-fluoro-1H-1,2,4-triazol-5-yl)-1-(2-fluorobenzyl)-1H-pyrazolo[3,4-b]pyridine]",100 to 1000 nM
13,"Cc1ccc(Cn2nc(-c3nc(C(F)(F)F)n[nH]3)c3cccnc32)cc1 [Compound I-54, 1-(4-Methylbenzyl)-3-(3-(trifluoromethyl)-1H-1,2,4-triazol-5-yl)-1H-pyrazolo[3,4-b]pyridine]",< 100 nM
14,FC(F)c1n[nH]c(-n2nc(Cc3ccccc3)c3ncccc32)n1 [Compound I-129],> 1000 nM
15,CC(=O)Nc1n[nH]c(-c2nn(Cc3ccccc3F)c3ncccc23)n1 [Compound I-103],100 to 1000 nM
16,"CN(C)C(=O)c1n[nH]c(-c2nn(Cc3ccccc3F)c3ncccc23)n1 [Compound I-74, 5-(1-(2-fluorobenzyl)-1H-pyrazolo[3,4-b]pyridin-3-yl)-N,N-dimethyl-1H-1,2,4-triazole-3-carboxamide]",100 to 1000 nM
17,Fc1ccccc1Cn1nc(-c2nc(N3CCOCC3)n[nH]2)c2cccnc21 [Compound I-57],100 to 1000 nM
18,"CC(=O)NCc1n[nH]c(-c2nn(Cc3ccccc3F)c3ncccc23)n1 [Compound I-124, N-((5-(1-(2-fluorobenzyl)-1H-pyrazolo[3,4-b]pyridin-3-yl)-1H-1,2,4-triazol-3-yl)methyl)acetamide]",100 to 1000 nM
19,"Fc1ccc(F)c(Cn2nc(-c3nc(C(F)(F)F)n[nH]3)c3cccnc32)c1 [Compound I-14, 1-(2,5-Difluorobenzyl)-3-(3-(trifluoromethyl)-1H-1,2,4-triazol-5-yl)-1H-pyrazolo[3,4-b]pyridine]",< 100 nM
20,CCC(=O)c1n[nH]c(-c2nn(Cc3ccccc3F)c3ncccc23)n1 [Compound I-66],> 1000 nM
21,"Fc1cccc(Cn2nc(-c3nc(C(F)(F)F)n[nH]3)c3cccnc32)c1 [Compound I-52, 1-(3-Fluorobenzyl)-3-(3-(trifluoromethyl)-1H-1,2,4-triazol-5-yl)-1H-pyrazolo[3,4-b]pyridine]",< 100 nM
22,"Fc1ccccc1Cn1nc(-c2nc(C3(C(F)(F)F)CC3)n[nH]2)c2cccnc21 [Compound I-59, 1-(2-fluorobenzyl)-3-(3-(1-(trifluoromethyl)cyclopropyl)-1H-1,2,4-triazol-5-yl)-1H-pyrazolo[3,4-b]pyridine]",100 to 1000 nM
23,"Cc1ncc(Cn2nc(-c3nc(C(F)(F)F)n[nH]3)c3cccc(Cl)c32)cn1 [Compound I-46, 7-Chloro-1-((2-methylpyrimidin-5-yl)methyl)-3-(3-(trifluoromethyl)-1H-1,2,4-triazol-5-yl)-1H-indazole]",100 to 1000 nM
24,"Fc1ccc(Cn2nc(-c3nc(C(F)(F)F)n[nH]3)c3cccnc32)cc1 [Compound I-53, 1-(4-Fluorobenzyl)-3-(3-(trifluoromethyl)-1H-1,2,4-triazol-5-yl)-1H-pyrazolo[3,4-b]pyridine]",< 100 nM
25,"Cc1ccc2c(-c3nc(C(F)(F)F)n[nH]3)nn(Cc3ccccc3F)c2n1 [Compound I-50, 1-(2-Fluorobenzyl)-6-methyl-3-(3-(trifluoromethyl)-1H-1,2,4-triazol-5-yl)-1H-pyrazolo[3,4-b]pyridine]",< 100 nM
26,"Cc1n[nH]c(-c2nn(Cc3ccccc3F)c3ncccc23)n1 [Compound I-60, 1-(2-Fluorobenzyl)-3-(3-methyl-1H-1,2,4-triazol-5-yl)-1H-pyrazolo[3,4-b]pyridine]",< 100 nM

# Same assay, conditions: HEK293 cells expressing GloSensor 40F cGMP; 10 μM DETA-NONOate; normalized to 30 μM Compound Y; compounds in Table IB; read-out: Glo-sensor Abs EC50
row,Structure (SMILES),EC50
1,"Cc1ncc(Cc2nc(-c3nc(C(F)(F)F)n[nH]3)n3cc(F)ccc23)cn1 [Compound I-23, 6-Fluoro-1-((2-methylpyrimidin-5-yl)methyl)-3-(3-(trifluoromethyl)-1H-1,2,4-triazol-5-yl)imidazo[1,5-a]pyridine pyridine]",100 to 1000 nM
2,"Fc1cccn2c(-c3nc(C(F)(F)F)n[nH]3)nc(Cc3cncnc3)c12 [Compound I-15, 8-Fluoro-1-(pyrimidin-5-ylmethyl)-3-(3-(trifluoromethyl)-1H-1,2,4-triazol-5-yl)imidazo[1,5-a]pyridine]",< 100 nM
3,FC(F)(F)c1n[nH]c(-c2nc(Cc3cncnc3)c3ncccn23)n1 [Compound I-17],< 100 nM
4,"FC(F)(F)c1n[nH]c(-c2nc(CCC(F)(F)C(F)(F)F)n3ncccc23)n1 [Compound I-18, 7-(3,3,4,4,4-pentafluorobutyl)-5-(3-(trifluoromethyl)-1H-1,2,4-triazol-5-yl)imidazo[1,5-b]pyridazine]",100 to 1000 nM
